# In patent publication US20070275403A1, “Diagnostic methods for determining treatment” (priority 2006, published 2007):
# Where “and” joins values, the source holds several entries; their conditions need not be identical. Identical values can stand only once. Like-named read-outs stand apart in the source and are kept apart here.
# Experiments:
# [1] = system: NSCLC; conditions: patients previously screened for EGFR expression; cited from earlier work
# [2] = system: NSCLC; conditions: phase II trials; cited from earlier work
# [3] = system: NSCLC patients; experiment: Overall survival (Kaplan-Meier) of NSCLC patients in the gefitinib expanded access trial, by molecular subgroup; type: in vivo, human
# Procedure: (§1) Specimens. […] Chart review and study analyses were approved by the RUMC Institutional Review Board. The diagnosis of NSCLC in the archival material was obtained from pathology reports and confirmed by histologic evaluation before further analysis. Age, gender, smoking status and disease grade were established from chart review and patient report at registration. Smoking status was defined by lifetime consumption of <100 cigarettes. Response was assessed according to RECIST criteria of measurable and non-measurable lesions. […] Progressive disease was defined by relapse within 70 days of treatment.
# (§2) In Situ Hybridization. For copy number analyses by FISH, EGFR and centromere 7 (CEN7) probes were utilized to examine EGFR/cell, CEN7/cell and EGFR/CEN 7. A probe targeting α satellite repeat sequences near the centromere of chromosome 7 was used to indicate CEN 7 copy number (SpectrumGreen™ CEP® 7, Abbott Molecular Inc.). Specimen slides were prepared using either the Vysis Paraffin Pretreatment II or III kits (Abbott Molecular Inc.). The prepared specimen slides were hybridized with two-color FISH probe solutions (SpectrumOrange™ LSI® EGFR, Spectrum-Green CEP 7; Abbott Molecular Inc.) in a HYBrite™ automated co-denaturation oven (Abbott Molecular Inc.). The slides were placed on the oven surface and 10 μL probe solution was layered over the tissue section. A cover slip was applied over the probe solution and sealed to the slide with rubber cement. After denaturation at 73° C. for 5 minutes, the probe was hybridized at 37° C. for 16-18 hr. Following hybridization and removal of the rubber cement seal, the slides were placed in room-temperature 2×SSC (SSC=0.3 M NaCl, 15 mM sodium citrate), 0.3% Nonidet P40 (NP40) for 2-5 min to detach the cover slips. The slides were then immersed in 73° C. 2×SSC, 0.3% NP40 for 2 min to remove nonspecifically bound probe and then were allowed to dry in the dark. DAPI I antifade solution (Abbott Molecular Inc.) was applied to the specimen for visualization of the nuclei. […] Over-digested or under-digested specimens were reprocessed as described previously.
# (§3) Typically, 30-90 (median 80) cells were enumerated in each specimen. The mean number of signals per cell was calculated by totaling the number of signals from each cell for EGFR and CEN 7, and dividing by the number of cells counted to provide EGFR/cell and CEN 7/cell, respectively. EGFR/cell was divided by CEN 7/cell signals per cell to yield EGFR/CEN7. Other FISH parameters used in developing selection criteria are defined as follows. The EGFR % gain or CEN 7% gain was calculated as the percentage of cells with more than two EGFR or CEN 7 signals, respectively. […] When a slide was counted multiple times, counts were combined and used for recalculating the ratios and % gain.
# (§4) Optimal cutoff points for defining high ratios or high % gains were selected by first generating cutoffs from the mean minus 1.5 standard deviations to the mean plus 3.5 standard deviations, in 0.1 standard deviation increments, for each parameter (ratios and % gains), using the mean and standard deviations of the non responding patients. Each high and low ratios and % gains at each cutoff were compared with objective response and survival (greater than or less than 1 year survival) in contingency tables. Cutoffs with the lowest chi-square probabilities were selected for further analysis.
# Cutpoints were also assigned to indicate loss of chromosome 7, either monosomy or nullisomy.
# (§5) Immunohistochemistry. Paraffin sections (5 μm, freshly cut) were deparaffinized and rehydrated by standard technique. A microwave antigen retrieval method was then carried out in citrate buffer. The tissue was stained using a Ventana ES Histo-stainer (Ventana Medical Systems, Tucson, Ariz.) using supplied diaminobenzidine and avidin-biotin conjugate immunoperoxidase chemistry.
# [4] = system: NSCLC; conditions: phase III trial; cited from earlier work
# [5] = system: NSCLC patients; experiment: Objective response (RECIST) of NSCLC patients in the gefitinib expanded access trial, by demographic and molecular subgroup; type: in vivo, human
# Procedure: as §1, §2, §3, §4, §5
# Immunostaining frequency of all tumor cells on each slide was estimated on a scale of 0 to 4 without knowledge of clinical patient data.
smiles,measurement,setting,value
"C#Cc1cccc(Nc2ncnc3cc(OCCOC)c(OCCOC)cc23)c1 [Erlotinib, erlotinib]",response rate,[1],12.3%
COc1cc2ncnc(Nc3ccc(F)c(Cl)c3)c2cc1OCCCN1CCOCC1 [gefitinib],response rate,[2],18.4% and 11.8%
same,Median Survival,[3]; CEN 7 % ≧4 copies <52%,6.9 Months
same,Median Survival,"[3]; CEN7 % ≧4 copies ≧52%, pAKT+",39.4 months
same,Median Survival,"[3]; CEN7 % ≧4 copies, pAKT: Any negative",5.9 months
same,Median Survival,[3]; CEN 7/cell <3.6 (non-polysomy),6.0 Months
same,Median Survival,[3]; CEN 7/cell <3.6 and >2.0 (“normal”),5.8 Months
same,Median Survival,[3]; CEN 7/cell >3.6 or <2.0 (aneusomy),15.3 Months
same,Median Survival,[3]; CEN 7/cell ≧3.6 (polysomy),16.2 Months
same,Median Survival,"[3]; CEN 7/cell, pAKT: Any negative",5.9 months
same,Median Survival,"[3]; CEN 7 ≧3.6 (polysomy), pAKT+",24.5 months
same,Median Survival,[3]; EGFR % gain <75%,7.9 Months
same,Median Survival,[3]; EGFR % gain ≧75%,9.4 Months
same,Median Survival,[3]; EGFR % gain ≧75% cells and pAKT+,24.5 months
same,Median Survival,"[3]; EGFR % gain, pAKT: Any negative",6.6 months
same,Median Survival,"[3]; EGFR Expression, IHC Not detected",8.5 Months
same,Median Survival,"[3]; EGFR Expression, IHC Present",7.1 Months
same,Median Survival,[3]; EGFR/CEN 7 % gain <34%,6.0 Months
same,Median Survival,[3]; EGFR/CEN 7 % gain ≧3.4%,10.3 Months
same,Median Survival,"[3]; EGFR/CEN7 % gain, PTEN: Any negative",6.6 months
same,Median Survival,"[3]; PTEN Expression, IHC Not detected",5.9 Months
same,Median Survival,"[3]; PTEN Expression, IHC Present",9.3 Months
same,Median Survival,"[3]; pAKT Expression, IHC Not detected",5.8 Months
same,Median Survival,"[3]; pAKT Expression, IHC Present",10.5 Months
same,response rate,[4],8-13%
same,survival benefit,[4],no significant survival benefit
same,"Objective Response (partial and complete, RECIST), number of patients (%)","[5]; 250 mg daily gefitinib, Total, 81 patients",12 (15) %
same,"Objective Response, number of patients (%)","[5]; 250 mg daily, Age <60 years",8 (13) %
same,"Objective Response, number of patients (%)","[5]; 250 mg daily, Age ≧60 years",4 (21) %
same,"Objective Response, number of patients (%)","[5]; 250 mg daily, Gender Female",7 (16) %
same,"Objective Response, number of patients (%)","[5]; 250 mg daily, Gender Male",5 (14) %
same,"Objective Response, number of patients (%)","[5]; 250 mg daily, Histopathological subtype Bronchoalveolar, adenocarcinoma",10 (18) %
same,"Objective Response, number of patients (%)","[5]; 250 mg daily, Histopathological subtype Other",2 (8) %
same,"Objective Response, number of patients (%)","[5]; 250 mg daily, Never smoked",7 (58) %
same,"Objective Response, number of patients (%)","[5]; 250 mg daily, Performance status 0 to 1",6 (13) %
same,"Objective Response, number of patients (%)","[5]; 250 mg daily, Performance status 2 to 4",6 (18) %
same,"Objective Response, number of patients (%)","[5]; 250 mg daily, Prior chemotherapy None",2 (14) %
same,"Objective Response, number of patients (%)","[5]; 250 mg daily, Prior chemotherapy One",7 (18) %
same,"Objective Response, number of patients (%)","[5]; 250 mg daily, Prior chemotherapy Two or more",3 (5) %
same,"Objective Response, number of patients (%)","[5]; 250 mg daily, Smoking status Yes",5 (7) %
same,Overall response,"[5]; 81 patients, 250 mg daily gefitinib",15%
same,"Objective Response, number of patients (%)",[5]; CEN 7/cell <3.6,7 (11) %
same,"Objective Response, number of patients (%)",[5]; CEN 7/cell <3.8,7 (11) %
same,"Objective Response, number of patients (%)",[5]; CEN 7/cell <3.8 and >2.0 (“normal”),7 (13) %
same,"Objective Response, number of patients (%)",[5]; CEN 7/cell <4,7 (11) %
same,"Objective Response, number of patients (%)",[5]; CEN 7/cell >3.8 or <2.0 (aneusomy),5 (19) %
same,"Objective Response, number of patients (%)",[5]; CEN 7/cell ≧3.6,5 (28) %
same,"Objective Response, number of patients (%)",[5]; CEN 7/cell ≧3.8,5 (31) %
same,"Objective Response, number of patients (%)",[5]; CEN 7/cell ≧4,5 (36) %
same,"Objective Response, number of patients (%)",[5]; EGFR % gain <75%,5 (9) %
same,"Objective Response, number of patients (%)",[5]; EGFR % gain ≧75%,7 (29) %
same,"Objective Response, number of patients (%)",[5]; EGFR IHC 0,3 (9) %
same,"Objective Response, number of patients (%)",[5]; EGFR IHC 1+ to 4+,9 (20) %
same,"Objective Response, number of patients (%)",[5]; EGFR/CEN 7 % gain <34%,3 (7) %
same,"Objective Response, number of patients (%)",[5]; EGFR/CEN 7 % gain ≧34%,9 (23) %
same,"Objective Response, number of patients (%)",[5]; EGFR/CEN 7 <1,1 (5) %
same,"Objective Response, number of patients (%)",[5]; EGFR/CEN 7 ≧1,11 (19) %
same,"Objective Response, number of patients (%)",[5]; EGFR/cell ≦6 (FISH),7 (10) %
same,"Objective Response, number of patients (%)",[5]; EGFR/cell ≧6 (FISH),5 (46) %
same,"Objective Response, number of patients (%)","[5]; PTEN IHC Absent, 73 patients analyzed",3 (7) %
same,"Objective Response, number of patients (%)","[5]; PTEN IHC Present (1+ to 4+), 73 patients analyzed",8 (30) %
same,patients with complete response,[5]; of 81 patients,2 patients
same,patients with partial response,[5]; of 81 patients,10 patients
same,patients with stable disease,[5]; of 81 patients,Thirty-six
same,"Objective Response, number of patients (%)","[5]; pAKT IHC Absent, 73 patients analyzed",4 (10) %
same,"Objective Response, number of patients (%)","[5]; pAKT IHC Present (1+ to 4+), 73 patients analyzed",7 (21) %
